Here are results for 16 compounds from patent US12497396B2, “Nitrogen-containing heterocyclic derivatives, method therefor and application therefor as inhibitors of KRAS G12C for the treatment of cancers” (SHANGHAI HANSOH BIOMEDICAL CO., LTD., priority 2019, dated 2025).

Assay [1] concerns Mia PaCa-2 cells (KRAS G12C mutant cell line). Put plainly: Inhibition of Mia PaCa-2 cell proliferation (CellTiter-Glo, 72 h). It counts as cell-based, human. An excerpt:
(§1) As a preferred embodiment of the present disclosure, the detection method of NCI-H358 cell proliferation inhibitory activity and Mia PaCa-2 cell proliferation inhibitory activity is as follows: through cell culture, adding different concentrations of compound solutions to the cultured cells, continuing the culture for a period of time and measuring the cell proliferation; • further, the method of cell culture is: adjusting the cells to a suitable cell concentration with complete medium and spreading the cell suspension in well plates for culture; preferably, the culture conditions are 37° C., 5% CO2 incubator overnight; preferably, the cell suspension is spread in 96-well plates, 48-well plates, 24-well plates, 12-well plates or 6-well plates, more preferably 96-well plates; preferably, the suitable cell concentration is 1500-4000 cells/well, with 90 μL of cell suspension added to each well; • further, the compound solution is prepared with DMSO and may be further diluted with medium; preferably, the compound solution has a concentration gradient starting from 100 μM at 4-fold dilution, more preferably starting from 30 μM at 4-fold dilution, most preferably starting from 10 μM at 4-fold dilution; • further, the volume of the compound solution or solvent added to each well is 1-10 μL, preferably 10 μL; • further, after adding the compound solution, the conditions for continuing the culture are 37° C., 5% CO2 incubator; preferably, the culture time is 24-72 h, more preferably 72 h; • further, the method for measuring cell proliferation is MTT, CCK8, CellTiter-Glo; preferably the method is CellTiter-Glo; • further, the cell proliferation is read using a microplate reader, more preferably a BioTek Synergy H1 microplate reader.
(§2) When NCI-H358 or Mia PaCa-2 cells were cultured to the appropriate fusion level, the NCI-H358 or Mia PaCa-2 cells were collected, and the cells were adjusted to the appropriate cell concentration using a complete medium, and the cell suspension was spread in a 96-well plate, 90 μL per well, and placed in a 37° C., 5% CO2 incubator overnight; and compound solutions of different concentrations were prepared using DMSO and culture medium; and a solvent control was set, the compound solution was added to a 96-well plate, 10 μL per well, at 37° C. in a 5% CO2 incubator for 72 hours; CellTiter-Glo solution was added thereto and the mixture was mixed well by shaking, incubated for 10 min in the dark, and read by BioTek Synergy H1 microplate reader.
(§3) The luminescence signal values were used to calculate the inhibition rate, the concentration and the inhibition rate were fitted to a nonlinear regression curve using Graphpad Prism software, then the IC50 value was obtained.
For orientation: Cellular ATP, detected with luciferase, serves as a proxy for viable cell number.

The subject of assay [2] is NCI-H358 cells (KRAS G12C mutant cell line). Put plainly: Inhibition of NCI-H358 cell proliferation (CellTiter-Glo, 72 h). The assay is classed as cell-based, human.
Excerpt: as §1, §2, §3

Assay [3] deals with T1, human KRAS G12C protein (Homo sapiens, UniProt P01116, G12C).
T1 construct: purchased Beijing SinoBiological Co., Ltd. 12259-H07E2
Put plainly: Thermal shift: melting temperature of KRAS G12C protein. The assay is classed as binding. Conditions: for Tm (° C.): KRAS G12C protein 5.37 μM with compound 10 μM, 1 hour incubation. On the procedure:
A solution containing […] (pH 7.5), 1 mM DTT, 5×SYPRO Orange and 150 mM NaCl was prepared as the experimental buffer, and a final concentration of 5.37 μM human KRAS G12C protein was added thereto. […] After incubating at room temperature in the dark for 1 hour, the PCR tube was put into the PCR instrument, QuantStudio Software v1.3 was opened, and the melting temperature of KRAS G12C protein in different treatment groups was detected by melt curve function (heating from 25° C. to 95° C., 0.03° C./s). The experimental data file of PCR instrument was imported into thermal shift software, and the melting temperature (Tm) of each treatment group was obtained, and the change value of melting temperature (Δ Tm) was obtained by subtracting the Tm of DMSO solvent control group.

Setting [4] is: compound 10 μM, Tm minus Tm of DMSO solvent control.

Each structure is given as a SMILES string. Where two headings read alike, the source gives them in different places.

Turning to `C=CC(=O)N1CCN(c2nc(=O)n(-c3c(SC)ccnc3C(C)C)c3nc(-c4c(O)cccc4F)c(F)cc23)[C@@H](C)C1` (single isomer, unassigned) [Embodiment 60-1], the IC50 (as a rule, the concentration that gives 50% inhibition) in assay [1] (Homo sapiens) worked out at 55 nM; in assay [2] (Homo sapiens) it was 28 nM.

`C=CC(=O)N1CCN(c2nc(=O)n(-c3c(C)ccnc3C(C)C)c3nc(-c4c(F)cccc4SC)c(F)cc23)[C@@H](C)C1` (single isomer, unassigned) [Embodiment 75-1]: the IC50 in assay [1] (Homo sapiens) is 36 nM; in assay [2] (Homo sapiens), 25 nM.

Turning to `C=CC(=O)N1CCN(c2nc(=O)n(-c3c(SC)ccnc3C(C)C)c3nc(-c4c(O)cccc4F)c(F)cc23)[C@@H](C)C1` [Embodiment 60, 4-((S)-4-acryloyl-2-methylpiperazin-1-yl)-6-fluoro-7-(2-fluoro-6-hydroxyphenyl)-1-(2-isopropyl-4-(methylthio)pyridin-3-yl)pyrido[2,3-d]pyrimidin-2(1H)-one], the “Tm (° C.)” value in assay [3] worked out at 60.2 °C. Also, in assay [3] (setting [4]), the ΔTm (in general, the change in melting temperature against a reference sample) at 10 µM amounted to 11.6 °C. In addition, the IC50 amounted to 60 nM in assay [1] (Homo sapiens) and 40 nM in assay [2] (Homo sapiens).

Consider `C=CC(=O)N1CCN(c2nc(=O)n(-c3c(C)ccnc3C(C)C)c3nc(-c4c(F)cccc4C(=O)N(C)C)c(F)cc23)[C@@H](C)C1` [Embodiment 73], for which, in assay [3], the “Tm (° C.)” value was 55.5 °C. In addition, the “ΔTm (° C.)” value in assay [3] (setting [4]) stood at 6.9 °C.

Turning to `C=CC(=O)N1CCN(c2nc(=O)n(-c3c(C)ccnc3C(C)C)c3nc(-c4c(F)cccc4SC)c(F)cc23)[C@@H](C)C1` [Embodiment 75, (S)-4-(4-acryloyl-2-methylpiperazin-1-yl)-6-fluoro-7-(2-fluoro-6-(methylthio)phenyl)-1-(2-isopropyl-4-methylpyridin-3-yl) pyrido[2,3-d]pyrimidin-2 (1H)-one], in assay [3], the “Tm (° C.)” value was 61.2 °C. In addition, the ΔTm at 10 µM in assay [3] (setting [4]) was determined as 10.6 °C. Besides, the IC50 in assay [1] (Homo sapiens) was found to be 34 nM; in assay [2] (Homo sapiens), 24 nM.

As for `C=CC(=O)N1[C@H](C)CN(c2nc(=O)n(-c3c(SC)ccnc3C(C)C)c3nc(-c4c(O)cccc4F)c(F)cc23)C[C@@H]1C` [Embodiment 115, 4-((3S, 5R)-4-acryloyl-3,5-dimethylpiperazin-1-yl)-6-fluoro-7-(2-fluoro-6-hydroxyphenyl)-1-(2-isopropyl-4-(methylthio)pyridin-3-yl) pyrido [2,3-d] pyrimidin-2 (1H)-one], in assay [3], the “Tm (° C.)” value came to 55.2 °C. The ΔTm at 10 µM in assay [3] (setting [4]) is 6.6 °C.

Regarding `C=CC(=O)N1CCN(c2nc(=O)n(-c3c(S(C)(=O)=O)ccnc3C(C)C)c3nc(-c4c(O)cccc4F)c(F)cc23)[C@@H](C)C1` [Embodiment 133, 4-((S)-4-acryloyl-2-methylpiperazin-1-yl)-6-fluoro-7-(2-fluoro-6-hydroxyphenyl)-1-(2-isopropyl-4-(methylsulfonyl)pyridin-3-yl) pyrido [2,3-d] pyrimidin-2 (1H)-one], the IC50 turned out to be 46 nM in assay [1] (Homo sapiens) and 25 nM in assay [2] (Homo sapiens).

`C=CC(=O)N1CCN(c2nc(=O)n(-c3c(C)ccnc3C(C)C)c3nc(-c4cccnc4SC)c(F)cc23)[C@@H](C)C1` [Embodiment 136, (S)-4-(4-acryloyl-2-methylpiperazin-1-yl)-6-fluoro-1-(2-isopropyl-4-methylpyridin-3-yl)-7-(2-(methylthio)pyridin-3-yl) pyrido [2,3-d] pyrimidin-2 (1H)-one]: in assay [3], the “Tm (° C.)” value turned out to be 57.3 °C. In addition, the ΔTm at 10 µM in assay [3] (setting [4]) stood at 8.7 °C.

`C=CC(=O)N1CCN(c2nc(=O)n(-c3c(SC)ccnc3C(C)C)c3nc(-c4c(N)ccc(Cl)c4F)c(F)cc23)[C@@H](C)C1` [Embodiment 151, 4-((S)-4-acryloyl-2-methylpiperazin-1-yl)-7-(6-amino-3-chloro-2-fluorophenyl)-6-fluoro-1-(2-isopropyl-4-(methylthio)pyridin-3-yl)pyrido[2,3-d]pyrimidin-2(1H)-one]: the IC50 in assay [1] (Homo sapiens) turned out to be 59 nM; in assay [2] (Homo sapiens), 39 nM.

With `C=CC(=O)N1CCN(c2nc(=O)n(-c3c(SC)ccnc3C(C)C)c3nc(-c4c(O)ccc(F)c4F)c(F)cc23)[C@@H](C)C1` [Embodiment 153, 4-((S)-4-acryloyl-2-methylpiperazin-1-yl)-7-(2,3-difluoro-6-hydroxyphenyl)-6-fluoro-1-(2-isopropyl-4-(methylthio)pyridin-3-yl) pyrido [2,3-d] pyrimidin-2 (1H)-one], the IC50 in assay [1] (Homo sapiens) stood at 76 nM; in assay [2] (Homo sapiens) it was 68 nM.

As for `C=CC(=O)N1CCN(c2nc(=O)n(-c3c(SC)ccnc3C(C)C)c3nc(-c4c(F)cccc4F)c(F)cc23)[C@@H](C)C1` [Embodiment 154, (S)-4-(4-acryloyl-2-methylpiperazin-1-yl)-7-(2,6-difluorophenyl)-6-fluoro-1-(2-isopropyl-4-(methylthio)pyridin-3-yl)pyrido[2,3-d]pyrimidin-2(1H)-one], the figures for the IC50 in assay [1] (Homo sapiens) and in assay [2] (Homo sapiens) were 68 nM and 79 nM, respectively.

With `C=CC(=O)N1C[C@H](C)N(c2nc(=O)n(-c3c(SC)ccnc3C(C)C)c3nc(-c4c(O)cccc4F)c(Cl)cc23)C[C@H]1C` [Embodiment 166, 4-((2S, 5R)-4-acryloyl-2,5-dimethylpiperazin-1-yl)-6-chloro-7-(2-fluoro-6-hydroxyphenyl)-1-(2-isopropyl-4-(methylthio)pyridin-3-yl) pyrido [2,3-d] pyrimidin-2 (1H)-one], the results for the IC50 in assay [1] (Homo sapiens) and in assay [2] (Homo sapiens) were 23 nM and 16 nM, respectively.

Take `C=CC(=O)N1CCN(c2nc(=O)n(-c3c(SC)ccnc3C(C)C)c3nc(-c4c(F)cccc4F)c(F)cc23)[C@@H](C)C1` [Embodiment 169, (S)-4-(4-acryloyl-2-methylpiperazin-1-yl)-7-(2,6-difluorophenyl)-6-fluoro-1-(2-isopropyl-4-(methylthio)pyridin-3-yl) pyrido [2,3-d] pyrimidin-2 (1H)-one]: the IC50 was 68 nM in assay [1] and 79 nM in assay [2].

For `C=CC(=O)N1CCN(c2nc(=O)n(-c3c(SC)ccnc3C(C)C)c3nc(-c4c(N)c(Cl)cc(Cl)c4F)c(Cl)cc23)[C@@H](C)C1` [Embodiment 191, 4-((s)-4-acryloyl-2-methylpiperazine-1-yl)-7-(2-amino-3,5-dichloro-6-fluorophenyl)-6-chloro-1-(2-isopropyl-4-(methylthio)pyridin-3-yl) pyrido [2,3-d] pyrimidin-2 (1H)-one], the IC50 in assay [1] (Homo sapiens) was determined as 16 nM; in assay [2] (Homo sapiens), 32 nM.

`C=CC(=O)N1CCN(c2nc(=O)n(-c3c([S+](C)[O-])ccnc3C(C)C)c3nc(-c4c(N)c(Cl)cc(Cl)c4F)c(Cl)cc23)[C@@H](C)C1` (stereo partly drawn) [Embodiment 192, 4-((S)-4-acryloyl-2-methylpiperazin-1-yl)-7-(2-amino-3,5-dichloro-6-fluorophenyl)-6-chloro-1-(2-isopropyl-4-(methylsulfinyl)pyridin-3-yl) pyrido [2,3-d] pyrimidin-2 (1H)-one]: the IC50 was found to be 13 nM in assay [1] (Homo sapiens) and 29 nM in assay [2] (Homo sapiens).

For the compound `C=CC(=O)N1CCN(c2nc(=O)n(-c3c(SC)ccnc3C(C)C)c3nc(-c4c(F)cccc4Cl)c(Cl)cc23)[C@@H](C)C1` [Embodiment 208, 4-((S)-4-acryloyl-2-methylpiperazin-1-yl)-6-chloro-7-(2-chloro-6-fluorophenyl)-1-(2-isopropyl-4-(methylthio)pyridin-3-yl) pyrido [2,3-d] pyrimidin-2 (1H)-one], the IC50 in assay [1] (Homo sapiens) came out at 59 nM.
